Patent publication US20240425491A1, “HETEROARYL COMPOUNDS USEFUL IN THE TREATMENT OF COGNITIVE DISORDERS” (University College Cardiff Consultants Limited, priority 2021, published 2024)

Key:
[1] = biological target: T1, human recombinant GABAAR containing α5β3γ2 subunits (benzodiazepine site) (Homo sapiens, UniProt P18507+P31644); experiment: In vitro radioligand binding assay (α5-GABAAR Ki); conditions: inhibition of [3H]Ro15-1788 binding, membranes of L(tk−) cells expressing human α5β3γ2; read-out: α5-GABAAR Ki
T1 construct: expressed in transfected cells; host or cells: mouse L(tk−) cells, dexamethasone-inducible vector pMSGneo
In short: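 Displacement of 4 nM [^3H]flumazenil from the benzodiazepine site, read by filtration and scintillation, gave IC50, converted to Ki (Cheng-Prusoff, saturation-derived Kd). Receptor: human α5β3γ2 membranes from L(tk^−) cells, 50 μg protein/well; 1 h, 4° C; TP003 1 μM defined nonspecific binding.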

[2] = biological target: T2, human α5β3γ2 GABAARs in mouse L(tk−) cells (Homo sapiens, UniProt P18507+P31644); experiment: In vitro electrophysiological recording assay (α5-GABAAR relative efficacy), QPatch; format: cell-based; conditions: GABA EC10-20
T2 construct: expressed in transfected cells; host or cells: mouse L(tk−) cells, dexamethasone-inducible vector pMSGneo
In short: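 Whole-cell QPatch recordings at 20-22° C, −65 mV holding, in dexamethasone-induced (1 μM, 24 h) L(tk−) cells. Compound pre-applied ≥1 min, then co-applied with GABA EC10-20; percentage change in leak-corrected peak current, taken at ≥100× Ki, normalised to DMCM efficacy; 0.1% DMSO final.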

T1 sequence (P31644 32-462): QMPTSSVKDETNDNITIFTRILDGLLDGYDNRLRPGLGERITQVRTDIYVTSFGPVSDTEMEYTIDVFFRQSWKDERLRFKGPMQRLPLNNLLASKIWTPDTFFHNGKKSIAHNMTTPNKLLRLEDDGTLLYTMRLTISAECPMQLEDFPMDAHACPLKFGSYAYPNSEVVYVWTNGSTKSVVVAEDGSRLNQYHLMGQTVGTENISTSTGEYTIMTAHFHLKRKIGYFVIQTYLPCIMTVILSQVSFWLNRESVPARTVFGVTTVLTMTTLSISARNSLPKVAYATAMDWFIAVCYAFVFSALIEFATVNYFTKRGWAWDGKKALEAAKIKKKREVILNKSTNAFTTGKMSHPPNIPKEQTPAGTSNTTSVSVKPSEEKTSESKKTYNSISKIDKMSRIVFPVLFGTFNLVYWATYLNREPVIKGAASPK
T1 sequence (P28472 26-473 partner): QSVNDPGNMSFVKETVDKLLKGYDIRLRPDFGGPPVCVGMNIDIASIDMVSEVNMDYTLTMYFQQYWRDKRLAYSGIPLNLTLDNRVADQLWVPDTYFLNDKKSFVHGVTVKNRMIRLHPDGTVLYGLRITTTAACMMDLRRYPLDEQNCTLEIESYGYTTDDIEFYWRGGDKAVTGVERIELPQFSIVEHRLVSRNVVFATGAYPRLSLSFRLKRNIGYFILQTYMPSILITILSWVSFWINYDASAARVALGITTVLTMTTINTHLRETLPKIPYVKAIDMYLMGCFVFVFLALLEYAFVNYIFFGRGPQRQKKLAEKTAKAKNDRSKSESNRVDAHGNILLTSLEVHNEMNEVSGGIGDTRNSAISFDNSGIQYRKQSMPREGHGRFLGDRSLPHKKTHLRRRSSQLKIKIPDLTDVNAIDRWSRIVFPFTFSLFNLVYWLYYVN
T1 sequence (P18507 40-475): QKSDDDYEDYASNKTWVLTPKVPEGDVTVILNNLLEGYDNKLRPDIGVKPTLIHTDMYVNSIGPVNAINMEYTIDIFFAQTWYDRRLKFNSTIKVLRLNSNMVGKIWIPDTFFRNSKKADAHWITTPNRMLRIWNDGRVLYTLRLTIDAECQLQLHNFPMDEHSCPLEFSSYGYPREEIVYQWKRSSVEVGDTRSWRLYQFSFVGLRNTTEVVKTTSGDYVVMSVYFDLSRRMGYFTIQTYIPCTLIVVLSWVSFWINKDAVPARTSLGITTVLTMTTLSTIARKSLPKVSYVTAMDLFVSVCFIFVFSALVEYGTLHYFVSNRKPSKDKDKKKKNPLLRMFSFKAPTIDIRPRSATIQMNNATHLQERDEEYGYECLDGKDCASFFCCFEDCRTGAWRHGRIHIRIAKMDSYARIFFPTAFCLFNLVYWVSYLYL
T2 sequence (P31644 32-462): as the sequence (P31644 32-462) above
T2 sequence (P28472 26-473 partner): as the sequence (P28472 26-473 partner) above
T2 sequence (P18507 40-475): as the sequence (P18507 40-475) above

Structure (SMILES) | Ki [1] | α5-GABAAR Relative Efficacy (to DMCM), Qpatch ([2]; Conc 1 μM) | α5-GABAAR Relative Efficacy (to DMCM), Qpatch ([2]; Conc 0.3 μM) | also measured
COc1nc(-c2cccc3c2CNC3=O)ccc1NC(=O)c1c(-c2ccccc2)noc1C [Example 97, N-(2-Methoxy-6-(1-oxoisoindolin-4-yl)pyridin-3-yl)-5-methyl-3-phenylisoxazole-4-carboxamide] | 19.1 nM | – | – | α5-GABAAR Relative Efficacy (to DMCM), Qpatch ([2]; Conc 3 μM): −0.67
COc1nc(-c2cnc3cnn(C)c3c2)ccc1NC(=O)c1c(-c2ccccc2)noc1C [Example 100, N-(2-Methoxy-6-(1-methyl-1H-pyrazolo[4,3-b]pyridin-6-yl)pyridin-3-yl)-5-methyl-3-phenylisoxazole-4-carboxamide] | 3 nM | – | −0.72 | –
COc1nc(-c2ccnnc2)ccc1NC(=O)c1c(-c2ccccc2)noc1C [Example 104, N-(2-Methoxy-6-(pyridazin-4-yl)pyridin-3-yl)-5-methyl-3-phenylisoxazole-4-carboxamide] | 1.7 nM | – | −0.68 | –
COc1nc(-c2ccc3c(c2)nc(C)n3C)ccc1NC(=O)c1c(-c2ccccc2)noc1C [Example 111, N-(6-(1,2-Dimethyl-1H-benzo[d]imidazol-5-yl)-2-methoxypyridin-3-yl)-5-methyl-3-phenylisoxazole-4-carboxamide] | 13.1 nM | – | – | α5-GABAAR Relative Efficacy (to DMCM), Qpatch ([2]; Conc 3 μM): −0.46
COc1nc(-c2cnoc2)cnc1NC(=O)c1c(-c2ccccc2)noc1C [Example 120, N-(5-Isoxazol-4-yl-3-methoxy-pyrazin-2-yl)-5-methyl-3-phenyl-isoxazole-4-carboxamide] | 4.6 nM | −0.73 | – | –
COc1nc(-c2ncc[nH]2)ccc1NC(=O)c1c(-c2ccccc2)noc1C [Example 121, N-[6-(1H-Imidazol-2-yl)-2-methoxy-3-pyridyl]-5-methyl-3-phenyl-isoxazole-4-carboxamide] | 2.1 nM | – | −0.36 | –
COCc1ncc(-c2ccc(NC(=O)c3c(-c4ccccc4)noc3C)c(OC)n2)cn1 [Example 125, N-[2-Methoxy-6-[2-(methoxymethyl)pyrimidin-5-yl]-3-pyridyl]-5-methyl-3-phenyl-isoxazole-4-carboxamide] | 2.5 nM | – | −0.84 | –
COc1nc(-c2cnc(C(=O)N(C)C)nc2)ccc1NC(=O)c1c(-c2ccccc2)noc1C [Example 130, N-[6-[2-(Dimethylcarbamoyl)pyrimidin-5-yl]-2-methoxy-3-pyridyl]-5-methyl-3-phenyl-isoxazole-4-carboxamide] | 2.3 nM | – | −0.55 | –
COc1nc(-c2ccn3nc(N(C)C)nc3c2)ccc1NC(=O)c1c(-c2ccccc2)noc1C.Cl [Example 131, N-[6-[2-(Dimethylamino)-[1,2,4]triazolo[1,5-a]pyridin-7-yl]-2-methoxy-3-pyridyl]-5-methyl-3-phenyl-isoxazole-4-carboxamide hydrochloride] | 9.8 nM | −0.67 | – | –
COc1nc(-c2cncn2C)ccc1NC(=O)c1c(-c2ccccc2)noc1C [Example 132, N-[2-Methoxy-6-(3-methylimidazol-4-yl)-3-pyridyl]-5-methyl-3-phenyl-isoxazole-4-carboxamide] | 4 nM | −0.52 | – | –
COc1nc(-c2c[nH]c(=O)c(F)c2)cnc1NC(=O)c1c(-c2ccccc2)noc1C [Example 133, N-[5-(5-Fluoro-6-oxo-1H-pyridin-3-yl)-3-methoxy-pyrazin-2-yl]-5-methyl-3-phenyl-isoxazole-4-carboxamide] | 4.1 nM | −0.75 | – | –
COc1nc(-c2cnc3cnccn23)ccc1NC(=O)c1c(-c2ccccc2)noc1C [Example 135, N-(6-(Imidazo[1,2-a]pyrazin-3-yl)-2-methoxypyridin-3-yl)-5-methyl-3-phenylisoxazole-4-carboxamide] | 1 nM | – | −0.85 | –
COc1nc(-c2cnc3n2CCNC3)ccc1NC(=O)c1c(-c2ccccc2)noc1C.Cl [Example 138, N-(2-Methoxy-6-(5,6,7,8-tetrahydroimidazo[1,2-a]pyrazin-3-yl)pyridin-3-yl)-5-methyl-3-phenylisoxazole-4-carboxamide hydrochloride] | 3.2 nM | −0.62 | – | –
COc1nc(-n2cnc(C(F)(F)F)c2)ccc1NC(=O)c1c(-c2ccccc2)noc1C [Example 140, N-[2-Methoxy-6-[4-(trifluoromethyl)imidazol-1-yl]-3-pyridyl]-5-methyl-3-phenyl-isoxazole-4-carboxamide] | 5.7 nM | −0.79 | – | –
CCOc1ncc(-c2cnc(NC(=O)c3c(-c4ccccc4)noc3C)c(OC)n2)cn1 [Example 142, N-[5-(2-Ethoxypyrimidin-5-yl)-3-methoxy-pyrazin-2-yl]-5-methyl-3-phenyl-isoxazole-4-carboxamide] | 2.9 nM | – | −0.85 | –
COc1nc(-c2ccc(NC(C)=O)nc2)cnc1NC(=O)c1c(-c2ccccc2)noc1C [Example 147, N-[5-(6-Acetamido-3-pyridyl)-3-methoxy-pyrazin-2-yl]-5-methyl-3-phenyl-isoxazole-4-carboxamide] | 0.5 nM | – | – | α5-GABAAR Relative Efficacy (to DMCM), Qpatch ([2]; Conc 0.1 μM): −0.67

Second part, led by results:

Ki [1] | α5-GABAAR Relative Efficacy (to DMCM), Qpatch ([2]; Conc 1 μM) | α5-GABAAR Relative Efficacy (to DMCM), Qpatch ([2]; Conc 0.3 μM) | Structure (SMILES) | also measured
6.7 nM | −0.70 | – | COc1nc(-c2ccc(N3CC[C@@H](O)C3)nc2)ccc1NC(=O)c1c(-c2ccccc2)noc1C [Example 99, (R)—N-(6′-(3-Hydroxypyrrolidin-1-yl)-6-methoxy-[2,3′-bipyridin]-5-yl)-5-methyl-3-phenylisoxazole-4-carboxamide] | –
1.5 nM | – | −0.79 | COc1nc(-c2cnnn2C)ccc1NC(=O)c1c(-c2ccccc2)noc1C [Example 102, N-(2-Methoxy-6-(1-methyl-1H-1,2,3-triazol-5-yl)pyridin-3-yl)-5-methyl-3-phenyl-isoxazole-4-carboxamide] | –
6.6 nM | −0.78 | – | CNc1cc(-c2ccc(NC(=O)c3c(-c4ccccc4)noc3C)c(OC)n2)ccn1 [Example 103, N-(6-Methoxy-2′-(methylamino)-[2,4′-bipyridin]-5-yl)-5-methyl-3-phenylisoxazole-4-carboxamide] | –
11.4 nM | – | – | COc1nc(-c2cnc3c(c2)OCO3)ccc1NC(=O)c1c(-c2ccccc2)noc1C [Example 106, N-(6-([1,3] Dioxolo[4,5-b]pyridin-6-yl)-2-methoxypyridin-3-yl)-5-methyl-3-phenylisoxazole-4-carboxamide] | α5-GABAAR Relative Efficacy (to DMCM), Qpatch ([2]; Conc 3 μM): −0.40
3.1 nM | −0.81 | – | COc1nc(-c2ccc(NC(C)=O)nc2)ccc1NC(=O)c1c(-c2ccccc2)noc1C [Example 108, N-(6′-Acetamido-6-methoxy-[2,3′-bipyridin]-5-yl)-5-methyl-3-phenylisoxazole-4-carboxamide] | –
29.1 nM | – | – | COc1nc(-c2cnn(-c3ccncc3)c2)ccc1NC(=O)c1c(-c2ccccc2)noc1C [Example 110, N-(2-Methoxy-6-(1-(pyridin-4-yl)-1H-pyrazol-4-yl)pyridin-3-yl)-5-methyl-3-phenylisoxazole-4-carboxamide] | α5-GABAAR Relative Efficacy (to DMCM), Qpatch ([2]; Conc 3 μM): −0.53
13.8 nM | – | – | COc1nc(-c2ccc3c(c2)COC(=O)N3)ccc1NC(=O)c1c(-c2ccccc2)noc1C [Example 119, N-(2-Methoxy-6-(2-oxo-1,4-dihydro-2H-benzo[d] [1,3]oxazin-6-yl)pyridin-3-yl)-5-methyl-3-phenylisoxazole-4-carboxamide] | α5-GABAAR Relative Efficacy (to DMCM), Qpatch ([2]; Conc 3 μM): −0.63
11.8 nM | – | – | COc1nc(-c2ncco2)ccc1NC(=O)c1c(-c2ccccc2)noc1C [Example 123, N-(2-Methoxy-6-oxazol-2-yl-3-pyridyl)-5-methyl-3-phenyl-isoxazole-4-carboxamide] | α5-GABAAR Relative Efficacy (to DMCM), Qpatch ([2]; Conc 3 μM): −0.48
23.6 nM | – | – | COc1nc(-c2cnoc2)ccc1NC(=O)c1c(C)nnn1-c1ccccc1 [Example 124, N-(6-(Isoxazol-4-yl)-2-methoxypyridin-3-yl)-4-methyl-1-phenyl-1H-1,2,3-triazole-5-carboxamide] | α5-GABAAR Relative Efficacy (to DMCM), Qpatch ([2]; Conc 3 μM): −1.40
46.7 nM | – | – | COc1ccc(-c2ccc(NC(=O)c3c(-c4ccccc4)noc3C)c(OC)n2)nn1 [Example 128, N-[2-Methoxy-6-(6-methoxypyridazin-3-yl)-3-pyridyl]-5-methyl-3-phenyl-isoxazole-4-carboxamide] | α5-GABAAR Relative Efficacy (to DMCM), Qpatch ([2]; Conc 10 μM): −0.19
3.3 nM | −0.60 | – | COc1nc(-c2cnc3ncccn23)ccc1NC(=O)c1c(-c2ccccc2)noc1C [Example 136, N-(6-(Imidazo[1,2-a]pyrimidin-3-yl)-2-methoxypyridin-3-yl)-5-methyl-3-phenylisoxazole-4-carboxamide] | –
1.9 nM | – | −0.90 | COc1nc(-n2cnc(C#N)c2)ccc1NC(=O)c1c(-c2ccccc2)noc1C [Example 139, N-[6-(4-Cyanoimidazol-1-yl)-2-methoxy-3-pyridyl]-5-methyl-3-phenyl-isoxazole-4-carboxamide] | –
0.3 nM | – | – | CNc1ncc(-c2cnc(NC(=O)c3c(-c4ccccc4)noc3C)c(OC)n2)cn1 [Example 145, N-[3-Methoxy-5-[2-(methylamino)pyrimidin-5-yl]pyrazin-2-yl]-5-methyl-3-phenyl-isoxazole-4-carboxamide] | α5-GABAAR Relative Efficacy (to DMCM), Qpatch ([2]; Conc 0.1 μM): −1.12
